IC50 and ED50 data for one compound are collected here from patent US5217976A, “1,6-naphthyridone derivatives having angiotensin II antagonist activity” (Imperial Chemical Industries PLC, priority 1991, dated 1993).

Assay [1] deals with T1, angiotensin II (AII) receptors, cell surface membrane fraction of guinea pig adrenal gland (Cavia porcellus, UniProt Q9WV26).
T1 construct: from tissue; host or cells: guinea pig adrenal gland, cell surface membrane fraction
T1 sequence (Q9WV26 1-359): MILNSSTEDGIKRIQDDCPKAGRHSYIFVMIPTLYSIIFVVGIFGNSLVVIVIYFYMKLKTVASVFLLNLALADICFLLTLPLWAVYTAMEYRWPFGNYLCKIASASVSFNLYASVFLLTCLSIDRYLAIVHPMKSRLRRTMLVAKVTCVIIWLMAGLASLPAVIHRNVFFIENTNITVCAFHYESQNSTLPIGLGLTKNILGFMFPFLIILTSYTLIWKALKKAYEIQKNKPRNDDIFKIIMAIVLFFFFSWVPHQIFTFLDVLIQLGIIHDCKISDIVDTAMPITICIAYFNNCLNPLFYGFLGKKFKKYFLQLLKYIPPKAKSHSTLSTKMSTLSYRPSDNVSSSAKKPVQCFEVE
Nature of the assay: Test A: displacement of radiolabelled AII binding to adrenal membrane fraction (in vitro). The conditions noted are these: guinea pig adrenal membranes, read-out: IC50 (concentration for 50% displacement of radiolabelled AII binding). Here is the method: Test A: This in vitro procedure involves the incubation of the test compound initially at a concentration of 100 micromolar (or less) in a buffered mixture containing fixed concentrations of radiolabelled AII and a cell surface membrane fraction prepared from a suitable angiotensin target tissue. In this test, the source of cell surface membranes is the guinea pig adrenal gland which is well known to responsd to AII. Interaction of the radiolabelled AII with its receptors (assessed as radiolabel bound to the particulate membrane fraction following removal of unbound radiolabel by a rapid filtration procedure such as is standard in such studies) is antagonized by compounds which also bind to the membrane receptor sites and the degree of antagonism (observed in the test as displacement of membrane-bound radioactivity) is determined readily by comparing the receptor-bound radioactivity in the presence of the test compound at the specified test concentration with a control value determined in the absence of the test compound. Using this procedure compounds showing at least 50% displacement of radiolabelled AII binding at a concentration of 10^-4 M are retested at lower concentrations to determine their potency. […]

Assay [2] relates to angiotensin II-induced pressor responses. Nature of the assay: Test C: antagonism of angiotensin II-induced pressor responses in anaesthetised or conscious rats (in vivo). The conditions noted are these: iv, rat, i.v. administration. Here is the method: Test C: This in vivo test involves using terminally-anaesthetised or conscious rats in which an arterial catheter has been implanted under anaesthesia for the measurement of changes in blood pressure. The AII antagonistic effects of the test compound following oral or parenteral administration, are assessed against angiotensin II-induced pressor responses. To ensure that the effect is specific, the effect of the test compound on vasopressin-induced pressor responses may also be determined in the same preparation.

A word on the ED50: it is the dose that gives a 50% effect, or the effect in half of the subjects. A high value points to weaker potency. For `Cc1cc2c(ccc(=O)n2Cc2ccc(-c3ccccc3-c3nnn[nH]3)cc2)c(C)n1.Cl` [Example I, 5,7-dimethyl-1[(2'-(1H-tetrazol-5-yl)biphenyl-4-yl)methyl]-1,6-naphthyridin-2(1H)-one hydrochloride], the IC50 in assay [1] is 8.84 nM. Further, the ED50 in assay [2] turned out to be 0.048 mg/kg.
